This passage reports GI50 and TGI results from PubChem BioAssay (NCI).

The structures appear in SMILES notation. Where “and” joins values, the source holds several entries; their conditions need not be identical. Identical values can stand only once.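 Dose response: 5 concentrations. Exposure: 48 h. Format: 96-well plates. Endpoint: linear interpolation; highest concentration if not reached. GI50 is the concentration that inhibits growth by half. TGI marks complete inhibition of growth.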

Common to all, as to assay: inhibition of tumour cell growth, NCI panel, 48 h
Test [1] deals with EKVX NSCLC.
Test [2] has as its system MDA-MB-231 breast.
The test system of test [3] is SNB-75 CNS.
Test [4] has as its system M14 melanoma.
Test [5] relates to CAKI-1 renal.
Test [6] relates to HOP-92 NSCLC.
The subject of test [7] is TK-10 renal.
Test [8] deals with A549 NSCLC.
The test system of test [9] is T-47D breast.
The subject of test [10] is K-562 leukemia.

Take `CCC(=O)c1c(C(F)(F)F)n([O-])c2ccccc2[n+]1=O`: the GI50 was 2 µM in [1]; 2.23 µM in [2]; 3.79 µM in test [3]; 1.7 µM in test [4]; 1.54 µM in [5]; 1.5 µM in [6]. In addition, the GI50 in test [7] was 2.81 µM; in test [8], 2.3 µM; in [9], 2.27 µM; in [10], 1.35 µM. Further, the TGI in test [1] amounted to 7.32 µM; in test [2] it was 7.93 µM; in test [3], 24.8 µM; in test [4] it was 6.19 µM; in test [5] it was 6.03 µM; in [6], 6.08 µM. Further, the TGI in test [7] worked out at 14.5 µM; in [8] it was 11.4 µM; in test [9] it was 31.1 µM; in test [10] it was 33.3 µM.
In the case of `Cc1c(C(N)=O)sc2c1c(=O)n(Cc1ccccc1)c1nnc(S(=O)(=O)CC(=O)Nc3ccc(Cl)cc3)n21`, the GI50 was 5.89 µM in test [1]; 4.24 µM in test [2]; 2.15 µM in test [3]; 5.3 µM in test [4]; 2.94 µM in test [5]; 2.26 µM in test [6]. Besides, the GI50 in [7] is 4.38 µM; in [8], 2.3 µM; in test [9] it was 3.89 µM; in test [10] it was 15 µM. Moreover, the TGI was 27.4 µM in test [1]; 18.5 µM in test [2]; 5.48 µM in [3]; 21.2 µM in test [4]; 11.8 µM in [5]; 6.63 µM in test [6]. Also, the TGI in test [7] came out at 19.2 µM; in test [8] it was 6.04 µM; in [9], 14.3 µM; in test [10] it was 55.2 µM.
In the case of `COc1cc2c3cc1Oc1c(OC)c(OC)cc4c1C(Cc1ccc(cc1)Oc1cc(ccc1O)CC3N(C)CC2)N(C)CC4` (centres undefined), the TGI in [1] is > 100 µM and 33.3 µM; in test [2] it was 24.5 µM; in test [3], 25.3 µM and 23.8 µM; in test [4], 4.27 µM and 4.79 µM; in test [5] it was 42.9 µM and 31.4 µM; in test [6], 38.7 µM and 41.3 µM. Besides, the TGI in test [7] was 45 µM and 25.9 µM; in test [8], 39.6 µM and 25.2 µM; in [9] it was 26.8 µM.
For `Cc1ccccc1NC(=O)c1cc2ccccc2cc1O`, the GI50 is 2.36 µM in test [1]; 3.17 µM in test [2]; 2.43 µM in [3]; 4.08 µM in [4]; 2.01 µM in test [5]; 2.39 µM in test [6]. Further, the GI50 is 4.2 µM in test [7], 3.48 µM in test [8], 3.51 µM in [9] and 5.23 µM in test [10]. Also, the TGI in test [1] is 91.8 µM; in test [2], 15.2 µM; in test [3], 44.9 µM; in test [4], greater than 100 µM; in [5], 5.87 µM; in test [6], 5.94 µM. The TGI in test [7], in [8], in [9] and in [10] was greater than 100 µM throughout.
Take `CCN(CC)CCC(=O)O[C@H]1CC[C@H](CC(C)[C@H]2CC(=O)C(C)C=C(C)[C@H](OC(=O)CCN(CC)CC)C(OC)C(=O)[C@@H](C)CC(C)/C=C/C=C/C=C(C)C(OC)CC3CC[C@H](C)[C@](O)(O3)C(=O)C(=O)N3CCCCC3C(=O)O2)CC1OC` (some centres undefined): the GI50 in [1] was 0.00704 µM; in test [2] it was 1.86 µM; in test [3], 0.1 µM; in test [4], 0.871 µM; in [6], 0.025 µM; in [7] it was 1.4 µM. In addition, the GI50 in test [9] is 0.0267 µM. In addition, the TGI is greater than 10 µM in test [1]; 8.14 µM and 1.74 µM in [2]; 1.77 µM and 0.55 µM in [3]; 2.62 µM and 2.2 µM in test [4]; 3.06 µM in test [5]; 4.31 µM and 1.62 µM in [6]. Also, the TGI in [7] was 6.12 µM and 4.25 µM; in [8], 7.54 µM and 9.53 µM; in [9], 4.12 µM; in [10], 5.2 µM and 3.65 µM.
`O=C1C=C(OCCCl)C(=O)c2c(O)ccc(O)c21`: the TGI in test [1] was 3.36 µM and 3.73 µM; in test [2], 3.27 µM and 8.96 µM; in [3], 0.97 µM and 3.74 µM; in [4] it was 0.32 µM and 2.19 µM; in test [5] it was 3.88 µM and 3.16 µM; in test [6], 3.8 µM and 8 µM. The TGI in test [7] was 5.55 µM and 6.83 µM; in test [8] it was 0.686 µM and 3.41 µM; in [9], 4.52 µM; in [10] it was 3.11 µM. Further, the GI50 is 3.29 µM in test [2]; 2.1 µM in [3]; 0.741 µM in [4]; 1.75 µM in [5]; 3.43 µM in test [6]; 3 µM in test [7]. Further, the GI50 is 1.63 µM in [8] and 1.17 µM in [10].
As to `O=c1[nH]nc(-c2ccccc2)c2c(-c3ccccc3)onc12`, the GI50 is 1.25 µM in [1]; 17.7 µM in [2]; 0.96 µM in test [3]; 0.329 µM in test [4]; 0.728 µM in test [5]; 0.933 µM in [6]. Besides, the GI50 was 0.999 µM in test [7], 0.529 µM in [8], 0.595 µM in test [9] and 0.385 µM in test [10]. Besides, the TGI in test [1] is greater than 100 µM; in [2] it was greater than 100 µM; in test [3], greater than 21.9 µM; in test [4], greater than 100 µM; in [5], greater than 100 µM; in test [6], greater than 58.3 µM. For the same molecule, the TGI was greater than 100 µM in test [7], greater than 100 µM in test [8], greater than 46 µM in [9] and greater than 100 µM in [10].
As for `COc1cc(-c2oc3c(OC)c(O)cc(O)c3c(=O)c2OC)ccc1O`, the TGI in test [1] was 72.5 µM; in [2] it was greater than 100 µM; in test [3] it was 27.1 µM; in [4] it was greater than 31.3 µM; in test [5], 51.5 µM; in test [6], 15.5 µM. The TGI in test [7] was 69.6 µM; in test [8], greater than 100 µM; in test [9] it was 18.2 µM; in test [10], greater than 100 µM.
Take `CN(C)C(=S)SCC(N)=O`: the TGI in [1], in test [2], in test [3], in test [4], in [5] and in test [6] was greater than 100 µM throughout. In addition, the TGI in [7], in [8], in [9] and in [10] was greater than 100 µM throughout.
